Reference: the supplement of paper PMC10307832

Experiments:
Experiment in all cases: relative viability (nuclei count vs DMSO), 5 days (fraction); higher = more cells survive
NCI-H1355 = test system: NCI-H1355
Summary of the method: (§1)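 After 5 days of treatment, lung cancer cells in 1536-well plates were fixed and stained in a single step (final 0.05% Triton X-100, 1% formaldehyde, 1 ug/ml Hoechst) and their nuclei counted on 4× images. Treatment had been applied by pin tool the day after seeding as one drug alone or as a fixed anchor-drug dose with five library-drug doses (not always all listed) in √10 steps. Relative viability is the nuclei count of treated wells divided by that of vehicle wells, and values are medians of duplicate plates.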

EKVX = test system: EKVX
Summary of the method: as §1

NCI-H1792 = test system: NCI-H1792
Summary of the method: as §1

NCI-H2342 = test system: NCI-H2342
Summary of the method: as §1

EMC-BAC-2 = test system: EMC-BAC-2
Summary of the method: as §1

CAL-12T = test system: CAL-12T
Summary of the method: as §1

ABC-1 = test system: ABC-1
Summary of the method: as §1

NCI-H2085 = test system: NCI-H2085
Summary of the method: as §1

NCI-H522 = test system: NCI-H522
Summary of the method: as §1

NCI-H2087 = test system: NCI-H2087
Summary of the method: as §1

BEN = test system: BEN
Summary of the method: as §1

LC-2-ad = test system: LC-2-ad
Summary of the method: as §1

NCI-H1734 = test system: NCI-H1734
Summary of the method: as §1

H3255 = test system: H3255
Summary of the method: as §1

NCI-H838 = test system: NCI-H838
Summary of the method: as §1

LU99A = test system: LU99A
Summary of the method: as §1

NCI-H1993 = test system: NCI-H1993
Summary of the method: as §1

Nc1cccc2c1CN(C1CCC(=O)NC1=O)C2=O (configuration not stated) [Lenalidomide] + NC(=O)Nc1cc(-c2cccc(F)c2)sc1C(=O)N[C@H]1CCCNC1 [AZD7762] (partner 0.2 µM)
relative viability (NCI-H1355; first compound 0.253 µM): 0.798 | relative viability (NCI-H1355; first compound 0.8 µM): 0.59 | relative viability (NCI-H1355; first compound 2.53 µM): 0.765 | relative viability (NCI-H1355; first compound 8 µM): 0.696 | relative viability (EKVX; first compound 0.253 µM): 0.735 | relative viability (EKVX; first compound 0.8 µM): 0.941 | relative viability (EKVX; first compound 2.53 µM): 0.805 | relative viability (EKVX; first compound 8 µM): 0.7 | relative viability (NCI-H1792; first compound 0.253 µM): 0.894 | relative viability (NCI-H1792; first compound 0.8 µM): 0.571 | relative viability (NCI-H1792; first compound 2.53 µM): 0.971 | relative viability (NCI-H1792; first compound 8 µM): 0.479 | relative viability (NCI-H2342; first compound 0.253 µM): 0.494 | relative viability (NCI-H2342; first compound 0.8 µM): 0.402 | relative viability (NCI-H2342; first compound 2.53 µM): 0.529 | relative viability (NCI-H2342; first compound 8 µM): 0.449 | relative viability (EMC-BAC-2; first compound 0.253 µM): 1.12 | relative viability (EMC-BAC-2; first compound 0.8 µM): 0.64 | relative viability (EMC-BAC-2; first compound 2.53 µM): 1.19 | relative viability (EMC-BAC-2; first compound 8 µM): 0.931 | relative viability (CAL-12T; first compound 0.253 µM): 0.668 | relative viability (CAL-12T; first compound 0.8 µM): 0.564 | relative viability (CAL-12T; first compound 2.53 µM): 0.737 | relative viability (CAL-12T; first compound 8 µM): 0.666 | relative viability (ABC-1; first compound 0.253 µM): 0.791 | relative viability (ABC-1; first compound 0.8 µM): 0.59 | relative viability (ABC-1; first compound 2.53 µM): 0.929 | relative viability (ABC-1; first compound 8 µM): 0.856 | relative viability (NCI-H2085; first compound 0.253 µM): 0.991 | relative viability (NCI-H2085; first compound 0.8 µM): 1.02 | relative viability (NCI-H2085; first compound 2.53 µM): 0.982 | relative viability (NCI-H2085; first compound 8 µM): 0.919 | relative viability (NCI-H522; first compound 0.253 µM): 0.858 | relative viability (NCI-H522; first compound 0.8 µM): 0.882 | relative viability (NCI-H522; first compound 2.53 µM): 0.758 | relative viability (NCI-H522; first compound 8 µM): 0.758 | relative viability (NCI-H2087; first compound 0.253 µM): 1.29 | relative viability (NCI-H2087; first compound 2.53 µM): 1.29 | relative viability (NCI-H2087; first compound 8 µM): 1.23 | relative viability (BEN; first compound 0.253 µM): 0.783 | relative viability (BEN; first compound 0.8 µM): 0.503 | relative viability (BEN; first compound 2.53 µM): 0.701 | relative viability (BEN; first compound 8 µM): 0.563 | relative viability (LC-2-ad; first compound 0.253 µM): 0.902 | relative viability (LC-2-ad; first compound 0.8 µM): 0.928 | relative viability (LC-2-ad; first compound 2.53 µM): 0.865 | relative viability (LC-2-ad; first compound 8 µM): 0.94 | relative viability (NCI-H1734; first compound 0.253 µM): 0.586 | relative viability (NCI-H1734; first compound 0.8 µM): 0.597 | relative viability (NCI-H1734; first compound 2.53 µM): 0.618 | relative viability (NCI-H1734; first compound 8 µM): 0.494 | relative viability (H3255; first compound 0.253 µM): 0.936 | relative viability (H3255; first compound 0.8 µM): 0.747 | relative viability (H3255; first compound 2.53 µM): 0.93 | relative viability (H3255; first compound 8 µM): 0.823 | relative viability (NCI-H838; first compound 0.253 µM): 0.938 | relative viability (NCI-H838; first compound 0.8 µM): 0.871 | relative viability (NCI-H838; first compound 2.53 µM): 0.962 | relative viability (NCI-H838; first compound 8 µM): 1.03 | relative viability (LU99A; first compound 0.253 µM): 0.311 | relative viability (LU99A; first compound 0.8 µM): 0.341 | relative viability (LU99A; first compound 2.53 µM): 0.397 | relative viability (LU99A; first compound 8 µM): 0.257 | relative viability (NCI-H1993; first compound 0.253 µM): 0.587 | relative viability (NCI-H1993; first compound 0.8 µM): 0.646 | relative viability (NCI-H1993; first compound 2.53 µM): 0.702 | relative viability (NCI-H1993; first compound 8 µM): 0.539
